Reference: US11857550B2, “Benzathine analogs” (University of Pittsburgh—Of the Commonwealth System of …, priority 2012, dated 2024)

Key:
C57BL6 mice [1] = assay: Pseudomonas aeruginosa PA103 pneumonia model; assay type: in vivo; settings: 100 ug IP, PA103 18 h
human PBMC cells = assay: LPS-induced IL1β and TNFα cytokine release from PBMC cells (ELISA); assay type: cell-based; settings: LPS-exposed human PBMC
Experimental: FIGS. 20A-20J is a table depicting benzathine compounds, and assay results. PBMC cells (0.6 ml at 1.5*10^6/ml) were treated with 2 ug/ml LPS for 16 hrs along with each compound at different concentrations. IL1β and TNFα cytokine release were monitored by ELISA to calculate the IC50. U937 monocyte (0.6 ml at 1.5*10^6/ml) were treated with each compound at different concentrations for 16 h. Cells were then stained with Trypan blue to differentiate dead cells, and calculate the LD50. Therapeutic index (TI)=LD50/IC50. Compounds marked in red are high value targets (low IC50, high LD50) and require further testing in vivo.
Briefly, compounds were added to human PBMC cells at different concentrations that were exposed to […] and cytokine secretion was monitored by ELISA to determine the IC50. Compounds were also added to U937 monocytes at different concentrations, and cells were stained with trypan blue to determine the LD50. […] Several functional studies were undertaken to assess anti-inflammatory effects focusing on BC-1215.

COX-2 = molecular target: T1, COX-2 (Mus musculus, UniProt Q05769); assay: COX-2 activity in MLE cells; assay type: cell-based, murine; settings: 10 ug/ml, 24 h; positive control DuP-697
T1 construct: MLE cells were treated with BC-1215 (10 ug/ml) for 24 h before assaying for COX-2 activity (Cayman); endogenous in cells; host or cells: MLE (murine lung epithelial) cells
T1 sequence (Q05769 18-604): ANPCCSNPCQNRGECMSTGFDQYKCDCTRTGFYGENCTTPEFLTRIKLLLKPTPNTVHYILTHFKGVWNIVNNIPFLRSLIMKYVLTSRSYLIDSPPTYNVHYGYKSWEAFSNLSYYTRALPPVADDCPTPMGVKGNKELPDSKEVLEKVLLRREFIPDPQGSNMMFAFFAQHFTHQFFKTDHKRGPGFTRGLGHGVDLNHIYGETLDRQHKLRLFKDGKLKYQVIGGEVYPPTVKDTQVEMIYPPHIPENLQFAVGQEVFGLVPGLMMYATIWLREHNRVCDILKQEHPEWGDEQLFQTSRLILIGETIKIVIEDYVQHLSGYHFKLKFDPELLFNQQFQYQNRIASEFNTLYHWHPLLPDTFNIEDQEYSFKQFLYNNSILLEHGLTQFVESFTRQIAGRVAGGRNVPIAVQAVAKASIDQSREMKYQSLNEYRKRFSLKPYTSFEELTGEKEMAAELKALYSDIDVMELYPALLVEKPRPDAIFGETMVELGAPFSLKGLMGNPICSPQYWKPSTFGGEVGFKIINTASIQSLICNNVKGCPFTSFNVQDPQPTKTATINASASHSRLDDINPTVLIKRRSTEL

FBXO3 = FBXO3 (Homo sapiens, UniProt Q9UK99); assay: In vitro ubiquitination assay, SCFFBXO3 complex with V5-FBXL2 substrate; assay type: biochemical; settings: increased concentration of compound
Chain of FBXO3 (Q9UK99 whole entry): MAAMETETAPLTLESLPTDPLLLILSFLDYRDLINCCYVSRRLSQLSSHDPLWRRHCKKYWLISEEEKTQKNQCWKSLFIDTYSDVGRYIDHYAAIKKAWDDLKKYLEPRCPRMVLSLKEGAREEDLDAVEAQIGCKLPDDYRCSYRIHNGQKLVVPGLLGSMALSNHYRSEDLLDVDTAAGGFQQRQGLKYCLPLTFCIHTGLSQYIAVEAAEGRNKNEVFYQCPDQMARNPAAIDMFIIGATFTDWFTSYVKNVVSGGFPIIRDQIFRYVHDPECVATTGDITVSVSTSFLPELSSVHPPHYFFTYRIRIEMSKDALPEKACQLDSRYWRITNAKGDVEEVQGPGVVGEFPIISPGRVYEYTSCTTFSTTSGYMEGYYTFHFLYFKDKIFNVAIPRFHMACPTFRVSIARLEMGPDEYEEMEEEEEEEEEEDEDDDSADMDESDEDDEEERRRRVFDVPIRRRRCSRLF
Chain of FBXO3 (P63208 whole entry partner): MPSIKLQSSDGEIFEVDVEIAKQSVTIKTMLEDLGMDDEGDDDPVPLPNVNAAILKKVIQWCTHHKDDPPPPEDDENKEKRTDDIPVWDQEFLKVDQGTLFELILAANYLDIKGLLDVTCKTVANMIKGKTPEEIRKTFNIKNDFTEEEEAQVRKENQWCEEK
Chain of FBXO3 (Q13616 whole entry partner): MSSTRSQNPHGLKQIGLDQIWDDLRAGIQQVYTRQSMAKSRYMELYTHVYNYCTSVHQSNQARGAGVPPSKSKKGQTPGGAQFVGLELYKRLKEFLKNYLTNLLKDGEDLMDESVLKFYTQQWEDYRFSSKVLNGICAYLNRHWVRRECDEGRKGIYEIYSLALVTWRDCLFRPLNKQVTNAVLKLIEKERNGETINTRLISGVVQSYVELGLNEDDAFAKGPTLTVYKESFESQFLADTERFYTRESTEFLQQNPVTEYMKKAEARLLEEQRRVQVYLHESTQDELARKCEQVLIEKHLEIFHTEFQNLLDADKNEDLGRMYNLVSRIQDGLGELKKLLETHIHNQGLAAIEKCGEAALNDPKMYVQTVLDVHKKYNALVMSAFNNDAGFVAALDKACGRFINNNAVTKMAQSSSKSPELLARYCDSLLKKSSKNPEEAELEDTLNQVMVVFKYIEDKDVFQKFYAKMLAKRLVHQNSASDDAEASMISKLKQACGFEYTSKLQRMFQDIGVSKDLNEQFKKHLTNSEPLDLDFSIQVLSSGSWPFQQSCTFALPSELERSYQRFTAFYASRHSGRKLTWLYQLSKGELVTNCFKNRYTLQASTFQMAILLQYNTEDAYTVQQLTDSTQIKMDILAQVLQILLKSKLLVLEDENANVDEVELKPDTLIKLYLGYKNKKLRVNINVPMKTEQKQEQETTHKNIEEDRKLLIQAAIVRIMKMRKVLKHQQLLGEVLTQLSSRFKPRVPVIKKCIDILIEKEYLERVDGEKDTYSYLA
Chain of FBXO3 (P62877 whole entry partner): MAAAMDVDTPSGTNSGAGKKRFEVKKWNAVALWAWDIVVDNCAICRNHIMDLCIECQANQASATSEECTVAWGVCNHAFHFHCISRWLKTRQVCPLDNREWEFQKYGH
Description: FIGS. 10A-10E. BC-1215 inhibits FBXO3 and decreases TRAF protein levels. FIG. 10A. […] FIG. 10B. In vitro ubiquitination assays. […] FIG. 10C. […] Cells were collected and assayed for immunoblotting. FIG. 10D. […] FIG. 10E.
BC-1215 inhibits FBXO3 and decreases TRAF protein levels. […] Cells were collected and assayed for protein immunoblotting.

Staphylococcus aureus = assay: Kirby-Bauer antibiotic sensitivity test on Mueller-Hinton agar; assay type: cell-based; settings: 6 mm filter papers, 37 degrees, 24 h
Experimental: FIG. 19. Kirby-Bauer antibiotic testing. BC-1215 was tested in antibiotic sensitivity tests using Mueller-Hinton agar. Briefly, 6 mm filter papers containing different amounts of BC-1215 or gentamicin (positive control) were added on the Mueller-Hinton agar pre-exposed to Staphylococcus aureus. The plates were incubated at 37 degrees for 24 h. Zone sizes were measured and marked by a red circle indicating positive results.
Briefly, 6 mm filter papers containing different amounts of BC-1215 or gentamicin antibiotic (positive control) were added on the Mueller-Hinton agar pre-exposed to Staphylococcus aureus. The plates were incubated at 37 degrees for 24 h. Zone sizes were measured and marked by a red circle indicating positive results.

C57BL6 mice [2] = assay: LPS induced (endotoxin) septic shock model; assay type: in vivo; settings: IP, 10 min before 100 ug LPS IP; blood at 90 min
Experimental: FIG. 11. BC-1215 inhibits cytokine release from in an endotoxin septic shock model. BC-1215 was solubilized in water using acetic acid in a 1:2 molar ratio; the stock solution of BC-1215 was 5 mg/ml. C57BL6 mice were deeply anesthetized with ketamine (80-100 mg/kg intraperitoneally (i.p.) and xylazine (10 mg/kg i.p.). 500 ug, 100 ug, 20 ug, 4 ug and 0.8 ug of BC-1215 was administered to mice through an intraperitoneal (IP) injection. 10 min later, mice were given 100 ug of LPS (E. coli) through an IP injection. 90 min later, mice were euthanized; blood was collected and tested for IL1-β, IL-6 and TNFα assays. (n=3/mice group at each dose)
Compound BC-1215 was first solubilized in water using acetic acid in a 1:2 molar ratio; the stock solution of BC-1215 was 5 mg/ml. 500 ug, 100 ug, 20 ug, 4 ug and 0.8 ug of BC-1215 was administered to mice though an intraperitoneal (IP) injection. 10 min later, mice were given 100 ug of LPS (E. coli) through an IP injection. 90 min later, mice were euthanized; blood was collected and tested for IL1-β, IL-6 and TNFα cytokine assays.

## c1ccc(-c2ccc(CNCCNCc3ccc(-c4ccccn4)cc3)cc2)nc1 [BC-1215]
C57BL6 mice [1]
  cell infiltrates: decreased
  lavage cell counts: decreased
  lavage pro-inflammatory cytokine levels: significantly decreased
  lavage protein concentration: decreased
  lung compliance: increased compliance
  lung elastance: reduced elastance
  lung resistance: decreased lung resistance
Human PBMC cells
  IC50 (cytokine secretion): high
COX-2
  COX-2 activity: did not alter COX-2 activity
FBXO3
  FBXO3 catalyzed FBXL2 polyubiquitination: able to inhibit FBXO3 catalyzed FBXL2 polyubiquitination
Staphylococcus aureus
  S. aureus proliferation (zone of inhibition): inhibits S. aureus proliferation
C57BL6 mice [2]
  IC50 IL-1β: 1 mg/kg
  IC50 IL-6: 2.5 mg/kg
  IC50 TNFα: 1.2 mg/kg
